The record followed here is patent US9930890B2 (priority 2010, dated 2018).

One data set deals with Phytophthora infestans. The data set is classed as in vivo. The note with it: tomato plants, protective spray, active ingredient concentration 100 ppm, evaluation 7 days after inoculation; 0% = control, 100% = no infection.
For data set [1] the following is noted: for logp [a]: pH 2.7; for logp [b]: pH 7.8.
For another data set, the system named is Plasmopara viticola. Nature of the data set: Plasmopara test (grapevine)/protective. As to conditions: grapevine young plants, protective spray, active ingredient concentration 10 ppm, evaluation 6 days after inoculation; 0% = control, 100% = no infection. The data set is classed as in vivo. Here is the method: Plasmopara Test (Grapevine)/Protective
To produce an appropriate active ingredient formulation, 1 part by weight of active ingredient is mixed with the specified amounts of solvent and emulsifier, and the concentrate is diluted with water to the desired concentration.
To test for protective efficacy, young plants are sprayed with the active ingredient formulation at the stated application rate. After the spray coating has dried on, the plants are inoculated with an aqueous spore suspension of Plasmopara viticola and then remain in an incubation cabin at approx. 20° C. and 100% relative air humidity for 1 day. Subsequently, the plants are placed in a greenhouse at approx. 21° C. and approx. 90% air humidity for 4 days. The plants are then moistened and placed in an incubation cabin for 1 day.
Evaluation follows 6 days after the inoculation. 0% means an efficacy which corresponds to that of the control, whereas an efficacy of 100% means that no infection is observed.
In this test, the following inventive compounds show, at an active ingredient concentration of 10 ppm, an efficacy of 70% or more: […]

Turning to `CCON=Cc1ccccc1C1CC(c2csc(C3CCN(C(=O)Cn4nc(C(F)(F)F)cc4C)CC3)n2)=NO1` (mixture of isomers) [I-29], the figures for the Eff. % in the data set on Phytophthora infestans and with Plasmopara viticola were 100% and 90%, respectively. Also, the “logp [a]” value in data set [1] was 4[a].

On to `CON=Cc1ccccc1C1CC(c2csc(C3CCN(C(=O)Cn4nc(C(F)(F)F)cc4C)CC3)n2)=NO1` (mixture of isomers) [I-34], for which the values for the Eff. % in the data set on Phytophthora infestans and in the data set with Plasmopara viticola were 100% and 87%, respectively. The “logp [a]” value in data set [1] was 3.7[a].

With `CON=Cc1cccc(F)c1C1CC(c2csc(C3CCN(C(=O)Cn4nc(C(F)(F)F)cc4C)CC3)n2)=NO1` (mixture of isomers) [I-118], the figures for the Eff. % in the data set with Phytophthora infestans and with Plasmopara viticola were 95% and 100%, respectively. The “logp [a]” value in data set [1] is 3.61[a],. For the same molecule, the “logp [b]” value in data set [1] was 3.49[b].

`C#CCOCc1ccccc1C1CC(c2csc(C3CCN(C(=O)Cn4nc(C(F)(F)F)cc4C)CC3)n2)=NO1` (racemic) [I-46]: the Eff. % in the data set with Phytophthora infestans and in the data set on Plasmopara viticola was 94% each time. Further, the “logp [a]” value in data set [1] is 3.43[a].

On to `CC(=O)OCc1ccccc1C1CC(c2csc(C3CCN(C(=O)Cn4nc(C(F)(F)F)cc4C)CC3)n2)=NO1` (racemic) [I-47], for which the figures for the Eff. % with Phytophthora infestans and in the data set with Plasmopara viticola were 94% and 90%, respectively. The “logp [a]” value in data set [1] is 3.31[a].

`C#CCOCc1ccccc1C1CC(c2csc(C3CCN(C(=O)Cn4nc(C(F)F)cc4C(F)F)CC3)n2)=NO1` (racemic) [I-53]: the Eff. % in the data set on Phytophthora infestans is given as 94%; in the data set with Plasmopara viticola, 96%. Besides, in data set [1], the “logp [a]” value was 3.31[a].

Molecule `Cc1ccc(Cl)cc1NC(=O)N1CCC(c2nc(C3=NOC(c4c(Cl)cccc4OS(C)(=O)=O)C3)cs2)CC1` (racemic) [I-54] had an Eff. % in the data set on Phytophthora infestans of 94%. Further, in data set [1], the “logp [a]” value was 3.54[a], and the “logp [b]” value was 3.43[b]. In the data set with Plasmopara viticola, this molecule yielded an Eff. % of 100%.

For `CC(=O)OCc1ccccc1C1CC(c2csc(C3CCN(C(=O)Cn4nc(C(F)F)cc4C(F)F)CC3)n2)=NO1` (racemic) [I-55], the figures for the Eff. % in the data set on Phytophthora infestans and in the data set with Plasmopara viticola were 94% and 92%, respectively. Further, the “logp [a]” value in data set [1] was 3.22[a].

As for `COCCS(=O)(=O)Cc1ccccc1C1CC(c2csc(C3CCN(C(=O)Cn4nc(C(F)F)cc4C(F)F)CC3)n2)=NO1` (racemic) [I-57], the Eff. % in the data set on Phytophthora infestans worked out at 94%; in the data set with Plasmopara viticola, 90%. Moreover, the “logp [a]” value in data set [1] is 2.74[a].

Turning to `CC(=NO)c1ccccc1C1CC(c2csc(C3CCN(C(=O)Cn4nc(C(F)(F)F)cc4C)CC3)n2)=NO1` (centres unmarked) [I-40, 1-[4-(4-{5-[2-(N-Hydroxyethanimidoyl)phenyl]-4,5-dihydro-1,2-phenyloxazol-3-yl}-1,3-thiazol-2-yl)piperidin-1-yl]-2-[5-methyl-3-(trifluoromethyl)-1H-pyrazol-1-yl]ethanone], the figures for the Eff. % in the data set with Phytophthora infestans and in the data set on Plasmopara viticola were 100% and 90%, respectively. The “logp [a]” value in data set [1] was 2.92[a].

Take `N#CCOc1ccccc1C1CC(c2csc(C3CCN(C(=O)Cn4nc(C(F)F)cc4C(F)F)CC3)n2)=NO1` (centres unmarked) [I-63]: the Eff. % was 94% in the data set on Phytophthora infestans and 100% in the data set with Plasmopara viticola. Further, in data set [1], the “logp [a]” value is 3[a],. Besides, the “logp [b]” value in data set [1] was 2.91[b].

Turning to `O=C(Cn1nc(C(F)F)cc1C(F)F)N1CCC(c2nc(C3=NOC(c4ccccc4OS(=O)(=O)C4CC4)C3)cs2)CC1` (centres unmarked) [I-64], the Eff. % in the data set with Phytophthora infestans and with Plasmopara viticola was 100% in each case. In addition, the “logp [a]” value in data set [1] was 3.24[a],. In data set [1], the “logp [b]” value was 3.32[b].

In the data set with Phytophthora infestans, `Cc1ccc(C)c(NC(=O)N2CCC(c3nc(C4=NOC(c5ccccc5OS(C)(=O)=O)C4)cs3)CC2)c1` (centres unmarked) [I-74] showed an Eff. % of 100%. Also, in data set [1], the “logp [a]” value was 3.08[a], and the “logp [b]” value is 3.03[b]. In addition, the Eff. % in the data set with Plasmopara viticola came out at 100%.

For `Cc1cc(C(F)F)nn1CC(=O)N1CCC(c2nc(C3=NOC(c4ccccc4OCC#N)C3)cs2)CC1` (centres unmarked) [I-76], the Eff. % in the data set with Phytophthora infestans is given as 100%; with Plasmopara viticola, 93%. The “logp [a]” value in data set [1] was 2.7[a],. For the same molecule, the “logp [b]” value in data set [1] was 2.62[b].

With `CCS(=O)(=O)Oc1cccc(C2CC(c3csc(C4CCN(C(=O)Cn5nc(C(F)F)cc5C(F)F)CC4)n3)=NO2)c1` (centres unmarked) [I-77], the Eff. % turned out to be 98% in the data set with Phytophthora infestans and 93% in the data set with Plasmopara viticola. Besides, the “logp [a]” value in data set [1] is 3.08[a],. Further, in data set [1], the “logp [b]” value was 2.99[b].

As to `Cc1cc(C(F)(F)F)nn1CC(=O)N1CCC(c2nc(C3=NOC(c4c(Cl)cccc4OCC#N)C3)cs2)CC1` (centres unmarked) [I-78], the Eff. % with Phytophthora infestans is recorded as 80%. For the same molecule, in data set [1], the “logp [a]” value is 3.31[a], and the “logp [b]” value is 3.23[b]. This molecule also registered an Eff. % in the data set on Plasmopara viticola of 97%.

As for `N#CCOc1ccc(C2CC(c3csc(C4CCN(C(=O)Cn5nc(C(F)F)cc5C(F)F)CC4)n3)=NO2)cc1` (centres unmarked) [I-81], in the data set on Phytophthora infestans, the Eff. % came to 100%. Further, in data set [1], the “logp [a]” value was 2.89[a], and the “logp [b]” value is 2.8[b]. In addition, the Eff. % with Plasmopara viticola is reported as 99%.

On to `C/C=C/C(=O)Oc1ccccc1C1CC(c2csc(C3CCN(C(=O)Cn4nc(C(F)F)cc4C(F)F)CC3)n2)=NO1` (centres unmarked) [I-82], for which the Eff. % in the data set with Phytophthora infestans is given as 70%. Moreover, in data set [1], the “logp [a]” value was 3.46[a], and the “logp [b]” value was 3.37[b]. In the data set on Plasmopara viticola, this molecule came in with an Eff. % of 94%.

`O=C(Cn1nc(C(F)F)cc1C(F)F)N1CCC(c2nc(C3=NOC(c4cccc(OS(=O)(=O)C5CC5)c4)C3)cs2)CC1` (centres unmarked) [I-83] displayed an Eff. % in the data set on Phytophthora infestans of 98%. Besides, in data set [1], the “logp [a]” value is 3.17[a], and the “logp [b]” value is 3.07[b]. In the data set on Plasmopara viticola, this molecule gave an Eff. % of 94%.

The molecule `O=C(Cn1nc(C(F)F)cc1C(F)F)N1CCC(c2nc(C3=NOC(c4cc(F)ccc4OS(=O)(=O)C4CC4)C3)cs2)CC1` (centres unmarked) [I-84] gave an Eff. % in the data set on Phytophthora infestans of 90%. For the same molecule, in data set [1], the “logp [a]” value was 3.32[a], and the “logp [b]” value is 3.35[b]. Further, the Eff. % with Plasmopara viticola is 100%.

In the case of `CS(=O)(=O)Oc1c(F)cccc1C1CC(c2csc(C3CCN(C(=O)Cn4nc(C(F)F)cc4C(F)F)CC3)n2)=NO1` (centres unmarked) [I-85], the Eff. % in the data set on Phytophthora infestans turned out to be 75%. In addition, in data set [1], the “logp [a]” value is 2.97[a], and the “logp [b]” value was 2.91[b]. Moreover, the Eff. % with Plasmopara viticola was determined as 100%.

With `Cc1cc(C(F)(F)F)nn1CC(=O)N1CCC(c2nc(C3=NOC(c4c(F)cccc4OCC#N)C3)cs2)CC1` (centres unmarked) [I-86], the Eff. % in the data set with Phytophthora infestans turned out to be 75%; with Plasmopara viticola it was 99%. For the same molecule, the “logp [a]” value in data set [1] was 3.05[a],. Moreover, the “logp [b]” value in data set [1] was 2.94[b].

Molecule `N#CCCn1cccc1C1CC(c2csc(C3CCN(C(=O)Cn4nc(C(F)F)cc4C(F)F)CC3)n2)=NO1` (centres unmarked) [I-87] returned an Eff. % with Phytophthora infestans of 80%. Also, in data set [1], the “logp [a]” value was 2.71[a], and the “logp [b]” value is 2.64[b]. Further, the Eff. % in the data set with Plasmopara viticola was determined as 95%.

`CS(=O)(=O)Oc1cccc(Cl)c1C1CC(c2csc(C3CCN(C(=O)Cn4nc(C(F)F)cc4C(F)F)CC3)n2)=NO1` (centres unmarked) [I-102] gave an Eff. % with Phytophthora infestans of 75%. In addition, in data set [1], the “logp [a]” value was 3.2[a], and the “logp [b]” value was 3.09[b]. The same molecule displayed an Eff. % in the data set with Plasmopara viticola of 100%.

`Cc1cc(C(F)(F)F)nn1CC(=O)N1CCC(c2nc(C3=NOC(c4c(Cl)cccc4OS(C)(=O)=O)C3)cs2)CC1` (centres unmarked) [I-103]: the Eff. % in the data set with Phytophthora infestans stood at 80%. Further, in data set [1], the “logp [a]” value is 3.28[a], and the “logp [b]” value was 3.2[b]. The molecule further yielded an Eff. % with Plasmopara viticola of 100%.

As for `O=CNc1ccccc1C1CC(c2csc(C3CCN(C(=O)Cn4nc(C(F)F)cc4C(F)F)CC3)n2)=NO1` (centres unmarked) [I-108], the Eff. % in the data set on Phytophthora infestans stood at 100%; in the data set with Plasmopara viticola, 93%. Further, the “logp [a]” value in data set [1] is 2.42[a],. The “logp [b]” value in data set [1] was 2.32[b].

On to `CSCOc1ccccc1C1CC(c2csc(C3CCN(C(=O)Cn4nc(C(F)F)cc4C(F)F)CC3)n2)=NO1` (centres unmarked) [I-112], for which the figures for the Eff. % in the data set with Phytophthora infestans and in the data set on Plasmopara viticola were 94% and 100%, respectively. Also, the “logp [a]” value in data set [1] is 3.49[a],. The “logp [b]” value in data set [1] was 3.56[b].

In the data set on Phytophthora infestans, `N#CCOc1cccc(F)c1C1CC(c2csc(C3CCN(C(=O)Cn4nc(C(F)F)cc4C(F)F)CC3)n2)=NO1` (centres unmarked) [I-113] registered an Eff. % of 85%. Further, in data set [1], the “logp [a]” value was 2.87[a], and the “logp [b]” value was 2.88[b]. This molecule yielded an Eff. % with Plasmopara viticola of 100%.

For the molecule `Cc1cc(C(F)(F)F)nn1CC(=O)N1CCC(c2nc(C3=NOC(c4cccc(F)c4OS(=O)(=O)C4CC4)C3)cs2)CC1` (centres unmarked) [I-114], the Eff. % is reported as 94% in the data set on Phytophthora infestans and 100% in the data set on Plasmopara viticola. Moreover, the “logp [a]” value in data set [1] is 3.43[a],. For the same molecule, the “logp [b]” value in data set [1] is 3.42[b].

As to `O=C(Cn1nc(C(F)F)cc1C(F)F)N1CCC(c2nc(C3=NOC(c4ccccc4OS(=O)(=O)C(F)(F)F)C3)cs2)CC1` (centres unmarked) [I-115], the Eff. % with Phytophthora infestans is 88%; in the data set on Plasmopara viticola it was 100%. Further, in data set [1], the “logp [a]” value was 3.92[a],. Moreover, the “logp [b]” value in data set [1] was 3.92[b].

For `C=CC(=O)Oc1ccccc1C1CC(c2csc(C3CCN(C(=O)Cn4nc(C(F)F)cc4C(F)F)CC3)n2)=NO1` (centres unmarked) [I-116], the Eff. % in the data set on Phytophthora infestans was 98%; in the data set on Plasmopara viticola, 100%. Besides, the “logp [a]” value in data set [1] is 3.21[a],. For the same molecule, the “logp [b]” value in data set [1] is 3.15[b].
